Measurements: patent US5824647A, “Chemotactic wound healing peptides” (priority 1995, dated 1998)

Legend:
fibroblasts [1] = assay: HLA-DR, fibroblast effects; format: cell-based; parameters: key: NE = No Effect; conditions: Table II summary
[2] = system: human peripheral blood monocytes; assay: Monocyte chemotaxis in modified Boyden chambers; format: cell-based; parameters: key to Monocyte Migration: NE = No Effect
From the text: Human peripheral blood neutrophils and monocytes, isolated from whole blood using standard techniques may also be used in the chemotaxis assays, in a manner similar to infant foreskin fibroblasts, to measure the chemotactic activity of the peptides towards inflammatory cells. Such cells may also be maintained in supplemented MEM as above, to which 5-10% FCS may be added. When using neutrophils and monocytes, instead of fibroblasts, the polycarbonate filters used in the modified Boyden chambers had pore sizes of 2 and 3 microns, respectively. As above, all assays were carried out in quadruplicate.
The following 7-mer peptides (peptides 368-374, corresponding to amino acids 368-374 of human TGF-β1): VYYVGRK (SEQ ID NO. 1), LYYIGKT (SEQ ID NO. 2), LYYVGRT (SEQ ID NO. 3), IYYVGRN (SEQ ID NO. 4) and IYYVGRT (SEQ ID NO. 5) were synthesized by the Merrifield technique, purified by HPLC, and tested at different concentrations in the same assay for their ability to stimulate chemotaxis of human peripheral blood monocytes in vitro modified Boyden chambers.

[3] = system: infant foreskin fibroblasts; assay: Collagen production by fibroblasts (modified Peterofsky-Diegelman assay); format: cell-based, human; parameters: key to FIBROBLAST EFFECTS Collagen: NE = No Effect
Description: The peptides of the invention were also found to stimulate collagen production by fibroblasts. Collagen production by fibroblasts in response to the peptides of the present invention was measured utilizing a modified Peterofsky-Diegelman assay. The assay is used to determine whether the peptides of the invention stimulate or inhibit collagen production by fibroblasts.
Low passage (4-12 subpassages) infant foreskin fibroblasts were plated out at a density of 10^5 cells/well in Falcon 3008 multiwell plates in complete maintenance medium containing 10% FCS. After cells reached confluency (72 hr), the medium was changed daily for 3 days, each time being replaced with serum-free maintenance medium containing fresh ascorbic acid. Samples (50 μl) were added to triplicate wells containing 450 μl serum-free MEM supplemented with fresh ascorbic acid and [^3 H]-proline (sp. act. 20 Ci/mmole), but no non-essential amino acids. After an additional 24 hr of culture, supernatants were reacted with protease-free bacterial collagenase to digest all collagen. Similar aliquots of unreacted supernatants and bacterial collagenase-treated supernatants were precipitated with cold 10% trichloroacetic acid (TCA) and were centrifuged for 5 minutes in a Beckman microfuge. Aliquots of the supernatants, after TCA precipitated proteins were pelleted, were placed in vials containing Hydrofluor and then were counted in a scintillation counter. CPM from TCA precipitated supernatants not reacted with bacterial collagenase were subtracted from each culture. The resulting CPM was a reflection of the collagen produced by that culture.
A modified Peterofsky-Diegelmann assay was used to screen peptide samples for their ability to stimulate or inhibit collagen production. Low passage (4-12 subpassages) infant foreskin fibroblast were plated out at a density of 10^5 cells/well of Falcon 3008 multiwell plates in complete maintenance medium containing 10% FCS. After cells reached confluency (72 hr) the medium was changed daily for 3 days, each time being replaced with serum-free maintenance medium containing fresh ascorbic acid. Samples ([…]) were added to triplicate wells containing […] serum free MEM supplemented with fresh ascorbic acid and [^3 H]-proline (sp. act. 20 Ci/mmole), but no non-essential amino acids. After an additional 24 hours of culture, supernatants were reacted with protease-free bacterial collagenase to digest all collagen. Similar aliquots of unreacted supernatants and bacterial collagenase-treated supernatants were precipitated with cold 10% trichloroacetic acid (TCA) and were centrifuged for 5 minutes in a Beckman microfuge. Aliquots of the supernatants, after TCA precipitated proteins were pelleted, were placed in vials containing Hydrofluor and then were counted in a scintillation counter. CPM from TCA precipitated supernatants not reacted with bacterial collagenase were subtracted from each culture. The resulting CPM was a reflection of the collagen produced by that culture.
Collagen production was measured following administration of the various 7-mer peptides 368-374 (SEQ ID NOs. 1-5) to fibroblasts. Peptides […] (SEQ ID NO. 1), LYYIGKT (SEQ ID NO. 2), LYYVGRT (SEQ ID NO. 3), IYYVGRN (SEQ ID NO. 4) and IYYVGRT (SEQ ID NO. 5) were synthesized by the Merrifield technique, purified by HPLC, and tested at different concentrations in the same assay for their ability to stimulate production of collagen in confluent cultures of infant foreskin fibroblasts. Collagen production was measured by incorporation of [^3 H]proline into collagenase-sensitive protein. All samples were tested in triplicate, and values represent the mean of triplicate determinations. Data are expressed as "% stimulation" of collagen production relative to control production in cultures with plain culture medium only added. […]

fibroblasts [4] = assay: Hyaluronate production by fibroblasts; format: cell-based; parameters: key to FIBROBLAST EFFECTS Hyaluronate: NE = No Effect; conditions: Table II summary
[5] = system: infant foreskin fibroblasts; assay: Fibroblast chemotaxis in modified Boyden chambers (incl. checkerboard and deactivation studies); format: cell-based, human; parameters: key to FIBROBLAST EFFECTS Migration: NE = No Effect
Description: Target cells used in in vitro chemotaxis assays were infant foreskin fibroblasts obtained by establishing monolayer cultures from explants of tissue. Cells were maintained in Eagle's minimum essential medium (MEM) supplemented with non-essential amino acids, antibiotics, 50 ug/ml ascorbic acid, and 9% fetal calf serum (FCS). Cells were passaged by trypsinization every 3-5 days.
Infant foreskin fibroblasts were harvested from monolayer culture by gentle trypsinization, washed twice in serum-free Eagles's MEM and adjusted to a final concentration of 250,000 cells/ml. The cell suspension (0.4 ml) was added to the upper compartments of blind well modified Boyden chemotaxis chambers. The peptides of the invention being assayed for chemotactic activity were solubilized in glycylglycine (0.015M) buffered NaCl (0.14M), pH 7.2, hereinafter referred to as GGBS, and diluted 50% with serum-free MEM. Test substances were added to the lower compartment of the chemotaxis chambers. Gelatin-treated polycarbonate filters (8 micron pore size) were interposed between the lowest compartment and the upper cell compartment. Loaded chambers were incubated at 37° C. in a humidified atmosphere containing 5% CO2 for 150 minutes. After incubation, the chambers were disassembled, the filters removed, stained with hematoxylin, and mounted on glass cover slips. Fibroblast chemotaxis was quantitated by counting the number of fibroblasts in 20 oil immersion fields (OIF) that migrated and adhered to the lower surface of each filter. Samples were tested in quadruplicate and results are expressed as mean number of fibroblasts per 20 OIF±standard error of the mean (SEM). Chemotaxis neutralization studies were performed by adding TGF-β1 or fibronectin to the upper cell compartment and testing for effects on fibroblast migration to the TGF-β peptides.
Zigmond-Hirsch checkerboard analysis (Zigmond & Hirsch, J. Exptl. Med. 137:387, 1972) was performed to determine whether the 7-mer peptide 368-374 (Val Tyr Tyr Val Gly Arg Lys) induced chemotaxis of fibroblasts, monocytes and neutrophils.
Deactivation studies were utilized to determine whether the peptides of the invention containing the 7-mer peptide amino acid sequence induced chemotaxis via cellular receptors and mechanisms utilized by intact TGF-β.

[6] = system: infant foreskin fibroblasts; assay: Collagen production by fibroblasts (modified Peterofsky-Diegelman assay); format: cell-based, human; conditions: [3H]proline incorporation into collagenase-sensitive protein; listed as LYYIGRT
[7] = peptide in lower compartment of modified Boyden chamber

Row | Substance | FIBROBLAST EFFECTS HLA-DR (fibroblasts [1]) | Monocyte Migration ([2]; Table II summary) | FIBROBLAST EFFECTS Collagen ([3]; Table II summary) | FIBROBLAST EFFECTS Hyaluronate (fibroblasts [4]) | FIBROBLAST EFFECTS Migration ([5]; Table II summary) | monocyte chemotaxis / migration (in words) [2, 7] | collagen production by fibroblasts (in words) ([3]; [3H]proline incorporation into collagenase-sensitive protein) | fibroblast chemotaxis / migration (in words) [5, 7] | collagen production by fibroblasts (in words) [6]
1 | 280-339: synthetic peptide 280-339, corresponds to the amino terminal portion of TGF-β1 monomer (ALDTNYCFSSTEKNCCVRQLYIDFRKDLGWKWIHEPKGYHANFCLGPCPYIWSLDTQYSK; printed: Ala Leu Asp Thr Asn Tyr Cys Phe Ser Ser Thr Glu Lys Asn Cys Cys Val Arg Gln Leu Tyr Ile Asp Phe Arg Lys Asp Leu Gly Trp Lys Trp Ile His Glu Pro Lys Gly Tyr His Ala Asn Phe Cys Leu Gly Pro Cys Pro Tyr Ile Trp Ser Leu Asp Thr Gln Tyr Ser Lys) | NE | NE | NE | NE | NE | – | – | – | –
2 | LYYIGKT [7-mer peptide 368-374 homolog] | – | – | – | – | – | induced monocyte chemotaxis at all of the concentrations tested | stimulated collagen production to some degree | induced fibroblast chemotaxis at all of the concentration tested | stimulated collagen production
